Data published in the NIST ThermoML archive (doi:10.1016/j.tca.2011.10.010).

Assay: xn = mol fraction of the nth substance listed
Conditions: 101 kPa, Liquid, Vibrating tube method

CCN(CC)CCO.Cl [2-(diethylamino)ethanol hydrochloride] + OCC(O)CO
mass density [kg/m3]
Conditions | x1 = 0.2 | x1 = 0.25 | x1 = 0.33
298.15 K | 1220.1 | 1205.1 | –
303.15 K | 1217.3 | 1202 | 1170
308.15 K | 1214.1 | 1199 | –
313.15 K | 1211.4 | 1196.1 | 1163.8
318.15 K | 1208.1 | 1192.9 | –
323.15 K | 1204.8 | 1188.4 | 1158.5
328.15 K | 1202.1 | 1186.8 | –
333.15 K | 1198.9 | 1184 | 1153.1
338.15 K | 1196.1 | 1180.7 | –
343.15 K | 1193.6 | 1177.7 | 1145.8
348.15 K | 1190.1 | 1174.6 | –
353.15 K | 1187.3 | 1171.9 | 1140.3
358.15 K | 1184.1 | 1168.5 | –
363.15 K | 1180.7 | 1166.1 | 1134.4
368.15 K | 1178.1 | 1162.4 | –

CCN(CC)CCO.Cl [2-(diethylamino)ethanol hydrochloride] + OCCO
mass density [kg/m3]
Conditions | x1 = 0.2 | x1 = 0.25 | x1 = 0.33
298.15 K | 1103.7 | – | 1099.5
303.15 K | 1100.4 | 1098.6 | 1096.5
308.15 K | 1097.3 | – | 1093.3
313.15 K | 1094.2 | 1092.6 | 1090.3
318.15 K | 1091 | – | 1087.1
323.15 K | 1087.7 | 1086.2 | 1084
328.15 K | 1084.6 | – | 1080.9
333.15 K | 1081.5 | 1079.7 | 1077.8
338.15 K | 1078.2 | – | 1074.8
343.15 K | 1075 | 1074 | 1071.7
348.15 K | 1071.8 | – | 1068.6
353.15 K | 1068.3 | 1067.5 | 1065.5
358.15 K | 1065.4 | – | 1062.4
363.15 K | 1062.2 | 1060 | 1059
368.15 K | 1059 | – | 1056.2

C[N+](C)(C)CCO.[Cl-] [choline chloride] + OCC(O)CO
mass density [kg/m3]
Conditions | x1 = 0.25 | x1 = 0.33 | x1 = 0.5
298.15 K | 1203 | 1192 | –
303.15 K | 1200.2 | 1189.5 | 1153.5
308.15 K | 1197.6 | 1186.7 | –
313.15 K | 1195.1 | 1183.8 | 1148.3
318.15 K | 1192.2 | 1181.4 | –
323.15 K | 1189.1 | 1177.6 | 1143
328.15 K | 1186.8 | 1176.1 | –
333.15 K | 1184.4 | 1174.1 | 1137.9
338.15 K | 1181.4 | 1170.8 | –
343.15 K | 1178.1 | 1167.4 | 1132.6
348.15 K | 1176 | 1165.5 | –
353.15 K | 1173.2 | 1163.5 | 1126.6
358.15 K | 1170.6 | 1160.2 | –
363.15 K | 1167.8 | 1157.1 | 1122
368.15 K | 1165.2 | 1154.9 | –

C[N+](C)(C)CCO.[Cl-] [choline chloride] + OCCO
mass density [kg/m3]
Conditions | x1 = 0.28 | x1 = 0.33 | x1 = 0.36
298.15 K | 1117 | – | 1118
303.15 K | 1114.1 | 1114.6 | 1115.6
308.15 K | 1111.1 | – | 1112.2
313.15 K | 1108.2 | 1108.8 | 1109.7
318.15 K | 1105.2 | – | 1106.4
323.15 K | 1102.3 | 1103.6 | 1103.7
328.15 K | 1099.3 | – | 1100.6
333.15 K | 1096.2 | 1097.4 | 1096.8
338.15 K | 1093.4 | – | 1094.8
343.15 K | 1090.4 | 1091.6 | 1091
348.15 K | 1087.5 | – | 1089
353.15 K | 1084.7 | 1085.4 | 1087
358.15 K | 1081.6 | – | 1083.2
363.15 K | 1078.8 | 1079.1 | 1082
368.15 K | 1075.7 | – | 1077.4

C[P+](c1ccccc1)(c1ccccc1)c1ccccc1.[Br-] [methyltriphenylphosphonium bromide] + OCC(O)CO
mass density [kg/m3]
Conditions | x1 = 0.2 | x1 = 0.25 | x1 = 0.33
298.15 K | 1288.9 | 1297.6 | –
303.15 K | 1285.5 | 1294.5 | 1303
308.15 K | 1281.7 | 1290.6 | –
313.15 K | 1278 | 1287 | 1295.2
318.15 K | 1274.5 | 1283.6 | –
323.15 K | 1271 | 1280.9 | 1288.6
328.15 K | 1267.3 | 1276.6 | –
333.15 K | 1263.4 | 1273.6 | 1281.7
338.15 K | 1260.1 | 1269.6 | –
343.15 K | 1256.8 | 1266 | 1274.9
348.15 K | 1252.9 | 1262.6 | –
353.15 K | 1249.5 | 1259.3 | 1268.2
358.15 K | 1245.7 | 1255.6 | –
363.15 K | 1242.3 | 1252.4 | 1261.5
368.15 K | 1238.5 | 1248.6 | –

C[P+](c1ccccc1)(c1ccccc1)c1ccccc1.[Br-] [methyltriphenylphosphonium bromide] + OCCO
mass density [kg/m3]
Conditions | 303.15 K | 313.15 K | 323.15 K | 333.15 K | 343.15 K | 353.15 K | 363.15 K
x1 = 0.16 | 1216.3 | 1208.6 | 1202 | 1194.7 | 1187 | 1179.2 | 1172.3
x1 = 0.2 | 1229 | 1222 | 1215.1 | 1207.9 | 1200.6 | 1193.6 | 1186.4
x1 = 0.25 | 1242.4 | 1239.8 | 1232.4 | 1226 | 1218.8 | 1211.9 | 1204.5
